Legend:
[1] = biological target: nAChRs (L. migratoria manilensis α1 and R. norvegicus β2) (Locusta migratoria manilensis, UniProt P12390+W6ECM5); assay: Two-electrode voltage-clamp agonist dose-response on nAChRs expressed in Xenopus oocytes, with or without Na+/K+ ATPase; format: cell-based; conditions: for effect of Na^+/K^+ ATPase co-expression on agonist sensitivity: co-expression of Na^+/K^+ ATPase vs nAChRs alone, increase not removed by ouabain
Text: To characterize the influence of Na^+/K^+ ATPase on nAChR function, nAChRs were expressed with or without Na^+/K^+ ATPase in Xenopus oocytes.
(B) Does-response curves for nicotine. (C) Does-response curves for imidacloprid. The curves from the oocytes expressing nAChRs (L. migratoria manilensis subunit α1 and R. norvegicus subunit β2) were indicated by open squares. The curves from the oocytes co-expressing nAChRs and Na^+/K^+ ATPase (subunit α1 and β1) were indicated by solid triangles (without ouabain) and open triangles (with ouabain).
(§1) The L. migratoria manilensis subunit α1 (KF813096) and subunit β1 (KF813099) of Na^+/k^+ ATPase, and subunit α1 (KF873578) of nAhCRs were subcloned into the expression vector pGH19 at sites of BamHIand XbaI, BamHI and ApaI, and EcoRI and XbaI, respectively. Rattus norvegicus β2 subunit (L31622) was also subcloned into the expression vector pGH19 as described previously. The cRNAs of all subunits were generated as described previously. Xenopus oocyte preparation and cRNA injection were performed as described previously. Electrophysiological recordings were made using a two-electrode voltage clamp (Multiclamp 700B Amplifier; Axon Instruments, Foster, CA, USA) as previously described. The measurement of the current of Na^+/K^+ ATPase was performed as described.
Differences in responses (currents), Imax and EC50 values were analyzed by one-way ANOVA with at least three repeats (different batches of oocytes from different frogs). Multiple comparisons between the groups were performed using S-N-K method. The level of significance for results was set at p < 0.05.

[2] = tested on: Na^+/K^+ ATPase (α1 and β1); assay: Pump-mediated steady-state current of Na+/K+ ATPase in Xenopus oocytes (two-electrode voltage clamp); format: cell-based, Locusta migratoria manilensis; conditions: for effect on Na^+/K^+ ATPase steady-state current directly: oocytes expressing Na^+/K^+ ATPase without nAChRs, 1 μM nicotine and 1 μM DHβE
Procedure: as §1

nAChRs (L. migratoria manilensis α1 and R. norvegicus β2), sequence (W6ECM5 21-570): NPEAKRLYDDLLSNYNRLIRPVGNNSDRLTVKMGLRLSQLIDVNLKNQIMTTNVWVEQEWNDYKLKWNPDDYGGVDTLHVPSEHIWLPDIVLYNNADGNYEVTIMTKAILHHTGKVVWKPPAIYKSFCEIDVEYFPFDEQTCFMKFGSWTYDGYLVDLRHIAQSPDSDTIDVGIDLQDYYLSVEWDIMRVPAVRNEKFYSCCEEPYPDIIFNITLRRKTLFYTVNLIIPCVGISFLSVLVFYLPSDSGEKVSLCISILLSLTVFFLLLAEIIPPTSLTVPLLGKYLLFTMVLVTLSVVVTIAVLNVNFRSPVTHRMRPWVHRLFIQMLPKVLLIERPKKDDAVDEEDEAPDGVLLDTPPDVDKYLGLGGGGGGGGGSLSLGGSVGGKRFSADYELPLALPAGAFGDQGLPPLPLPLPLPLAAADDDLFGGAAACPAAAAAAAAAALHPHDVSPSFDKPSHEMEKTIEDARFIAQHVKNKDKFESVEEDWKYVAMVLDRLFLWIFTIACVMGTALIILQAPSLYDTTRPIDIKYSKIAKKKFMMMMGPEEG
nAChRs (L. migratoria manilensis α1 and R. norvegicus β2), sequence (P12390 25-500): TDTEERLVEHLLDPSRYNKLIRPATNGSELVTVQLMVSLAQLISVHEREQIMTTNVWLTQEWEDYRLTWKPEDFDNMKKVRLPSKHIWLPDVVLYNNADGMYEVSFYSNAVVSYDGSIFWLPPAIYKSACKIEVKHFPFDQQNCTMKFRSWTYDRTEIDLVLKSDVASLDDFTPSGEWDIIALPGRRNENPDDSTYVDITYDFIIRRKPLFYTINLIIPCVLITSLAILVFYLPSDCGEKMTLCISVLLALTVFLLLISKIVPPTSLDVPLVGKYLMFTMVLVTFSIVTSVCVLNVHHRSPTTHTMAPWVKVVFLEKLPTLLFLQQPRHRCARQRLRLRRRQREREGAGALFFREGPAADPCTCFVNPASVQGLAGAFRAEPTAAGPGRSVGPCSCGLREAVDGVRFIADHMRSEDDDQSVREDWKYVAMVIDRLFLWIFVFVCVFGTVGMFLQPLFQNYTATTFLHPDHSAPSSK

Row | SMILES | EC50 ([1]; oocytes only expressing nAChRs) | effect of Na^+/K^+ ATPase co-expression on agonist sensitivity [1] | steady state current of Na^+/K^+ ATPase ([2]; oocytes co-expressing Na^+/K^+ ATPase and nAChRs, 1 μM nicotine, with 1 μM DHβE to suppress nAChR currents) | effect on Na^+/K^+ ATPase steady-state current directly [2]
1 | CC(=O)OCC[N+](C)(C)C [ACh, acetylcholine] | 63.2 ± 5.14 µM | – | – | –
2 | O=[N+]([O-])NC1=NCCN1Cc1ccc(Cl)nc1 [imidacloprid] | – | increase agonist sensitivities | – | –
3 | CN1CCC[C@H]1c1cccnc1 [nicotine] | – | increase agonist sensitivities | increased significantly | no effects
4 | CO[C@H]1CC=C2CCN3CCC4=C(CC(=O)OC4)[C@]23C1 [DHβE, dihydro-β-erythroidine] | – | – | – | no effects

From paper PMC4351541 (Scientific Reports, 2015)
